Test results from ChEMBL document CHEMBL1150940, “New melampolides from Schkuhria schkuhrioides” (1998).
Values after ≈ are worked out from the molar mass of the structure shown.

Columns and labels:
[1] = Cytotoxicity against human UISO cells; assay type: functional; conditions: read-out: ED50 (the source's name)
[2] = Cytotoxicity against human COLON cells; assay type: functional; conditions: read-out: ED50 (the source's name)

Compound: C=C1C(=O)O[C@@H]2/C=C(\C)CC/C=C(/C=O)C[C@@H](O)[C@@H]12
- EC50 [1]: 1.82 µg/mL (≈ 6.94 µM)
- EC50 [2]: 0.9 µg/mL (≈ 3.43 µM)
